Data taken from article PMC9189845, “Structure–Activity Relationships of 8-Hydroxyquinoline-Derived Mannich Bases with Tertiary Amines Targeting Multidrug-Resistant Cancer” (Journal of Medicinal Chemistry, 2022).
Structures can show the parent of a compound that is named as a salt. Where two headings read alike, the source gives them in different places.

Columns and labels:
[1] = test system: MES-SA cells; test: PrestoBlue viability assay, MES-SA cells; settings: for pIC50 value MES-SA: MES-SA cells, without TQ
[2] = test system: MES-SA/Dx5 cells; test: PrestoBlue viability assay, MES-SA/Dx5 cells (MDR, P-gp positive); settings: for pIC50 value MES-SA/Dx5: MES-SA/Dx5 cells, without TQ; for SR (MES-SA_TQ / Dx5_TQ) (values in parentheses): presence of 1 μM TQ
[3] = read-out: IC50 / μM MES-SA, absence of TQ, 72 h incubation
[4] = read-out: IC50 / μM MES-SA/Dx5, absence of TQ, 72 h incubation
[5] = selectivity ratio MES-SA vs MES-SA/Dx5, with TQ
[6] = selectivity ratio MES-SA vs MES-SA/Dx5, without TQ
[7] = Homo sapiens, MES-SA, 72 h, read-out: IC50 / μM MES-SA, absence of TQ, 72 h incubation
[8] = Homo sapiens, MES-SA, read-out: pIC50 value MES-SA, MES-SA cells, without TQ (converted)
[9] = Homo sapiens, MES-SA/Dx5, 72 h, read-out: IC50 / μM MES-SA/Dx5, absence of TQ, 72 h incubation
[10] = Homo sapiens, MES-SA/Dx5, read-out: pIC50 value MES-SA/Dx5, MES-SA/Dx5 cells, without TQ (converted)
[11] = Homo sapiens, MES-SA, read-out: IC50 / μM MES-SA (values in parentheses), presence of 1 μM P-gp inhibitor tariquidar (TQ)
[12] = Homo sapiens, MES-SA, read-out: pIC50 value MES-SA+TQ, MES-SA cells, with TQ (converted)
[13] = Homo sapiens, MES-SA/Dx5, read-out: IC50 / μM MES-SA/Dx5 (values in parentheses), presence of 1 μM P-gp inhibitor tariquidar (TQ)
[14] = fraction of IC50 in P-gp negative vs positive cells

Compound	SR [2, 6]	IC50 [1, 7] [µM]	IC50 [1, 8] [µM]	IC50 [2, 9] [µM]	IC50 [2, 10] [µM]	other results
2-((4-Methylpiperazin-1-yl)methyl)phenol [Compound 72]						IC50 [1, 3]: > 100 µM; IC50 [2, 4]: > 100 µM
Oc1c(C(c2ccccc2Br)N2CCCC2)ccc2cccnc12 (racemic) [Compound 88]	1.98					pIC50 value MES-SA [1]: 4.89; IC50 [1, 3]: 13 ± 1.35 µM; pIC50 value MES-SA/Dx5 [2]: 5.18; IC50 [2, 4]: 6.6 ± 0.21 µM; SR_TQ [2, 5]: 1.55
Oc1c(C(c2ccc(C(F)(F)F)cc2)N2CCCC2)ccc2cccnc12 (racemic) [Compound 89]	3.91					pIC50 value MES-SA [1]: 4.98; IC50 [1, 3]: 11.1 ± 3.57 µM; pIC50 value MES-SA/Dx5 [2]: 5.56; IC50 [2, 4]: 2.83 ± 0.61 µM; SR_TQ [2, 5]: 1.12
CC1CCN(C(c2ccccc2)c2ccc3cccnc3c2O)CC1 (racemic) [Compound 99]	0.76					pIC50 value MES-SA [1]: 5.06; IC50 [1, 3]: 8.77 ± 0.24 µM; pIC50 value MES-SA/Dx5 [2]: 4.95; IC50 [2, 4]: 11.5 ± 1.75 µM
CC1CCN(C(c2cccs2)c2ccc3cccnc3c2O)CC1 (racemic) [Compound 101]	0.65					pIC50 value MES-SA [1]: 4.97; IC50 [1, 3]: 10.8 ± 0.18 µM; pIC50 value MES-SA/Dx5 [2]: 4.78; IC50 [2, 4]: 16.6 ± 0.81 µM
OCCN1CCN(C(c2ccc(F)cc2)c2ccc3cccnc3c2O)CC1 (racemic) [Compound 120]	2.29					pIC50 value MES-SA [1]: 4.18; IC50 [1, 3]: 66.7 ± 4.56 µM; pIC50 value MES-SA/Dx5 [2]: 4.55; IC50 [2, 4]: 29.1 ± 7.12 µM; SR_TQ [2, 5]: 1.55
Oc1cccc2cccnc12 [Compound 12, 8-hydroxyquinoline]						IC50 ([1]; Homo sapiens, MES-SA, 72 h, read-out: IC50 / μM MES-SA): 5.04 ± 0.51 µM; IC50 ([1]; Homo sapiens, MES-SA, read-out: IC50 / μM MES-SA (values in parentheses)): 5.13 ± 0.05 µM; IC50 ([1]; Homo sapiens, MES-SA, read-out: pIC50 value MES-SA (converted)): 5.01 µM; IC50 ([1]; Homo sapiens, MES-SA, read-out: pIC50 value MES-SA+TQ (converted)): 5.13 µM; SR [2]: 1.66; SR_TQ [2]: 2.34; IC50 ([2]; Homo sapiens, MES-SA/Dx5, 72 h, read-out: IC50 / μM MES-SA/Dx5): 3.04 ± 0.35 µM; IC50 ([2]; Homo sapiens, MES-SA/Dx5, read-out: IC50 / μM MES-SA/Dx5 (values in parentheses)): 2.2 ± 0.18 µM; IC50 ([2]; Homo sapiens, MES-SA/Dx5, read-out: pIC50 value MES-SA/Dx5 (converted)): 3.02 µM; IC50 ([2]; Homo sapiens, MES-SA/Dx5, read-out: pIC50 value MES-SA/Dx5 + TQ (converted)): 2.19 µM
CCN(CC)Cc1ccc(O)c2ncccc12 [Compound 45]	0.9	4.5 ± 0.04	4.47	5.02 ± 0.26	5.01	
Oc1ccc(CN2CCCC2)c2cccnc12 [Compound 46]	1.47	7.81 ± 0.5	7.76	5.31 ± 0.52	5.25	
CCOC(=O)C1CCN(Cc2ccc(O)c3ncccc23)CC1 [Compound 48]	1.31	4.62 ± 1.03	4.47	3.54 ± 0.72	3.47	
Oc1ccc(CN2CCc3ccccc3C2)c2cccnc12 [Compound 50]	0.99	16.7 ± 1.5	16.6	17 ± 0.49	17	
Oc1ccc(CN2CCCCCC2)c2cccnc12 [Compound 52]	1.23	7.15 ± 0.27	7.08	5.84 ± 0.69	5.75	
Oc1ccc(CN2CCOCC2)c2cccnc12 [Compound 54]	0.73	6.99 ± 0.31	6.92	9.58 ± 0.33	9.55	
Oc1ccccc1CN1CCCCC1 [Compound 59]		> 100		> 100		
COc1ccc(O)c(CN2CCCCC2)c1 [Compound 60]		> 100		> 100		
O=Cc1ccc(O)c(CN2CCCCC2)c1 [Compound 61]		> 100		> 100		
CC(=O)c1ccc(O)c(CN2CCCCC2)c1 [Compound 62]		> 100		> 100		
COc1ccc(C(C)=O)cc1CN1CCCCC1 [Compound 63]		> 100		> 100		
Oc1ccc2ccncc2c1CN1CCCC(C(F)(F)F)C1 (stereo not drawn) [Compound 64]		> 100		> 100		

Compound	SR [2, 6]	IC50 [1, 7] [µM]	IC50 [1, 8] [µM]	IC50 [2, 9] [µM]	IC50 [2, 10] [µM]	other results
Oc1ccccc1CN1CCOCC1 [Compound 65]		> 100		> 100		
Oc1ccccc1C(=S)N1CCOCC1 [Compound 66]		> 100		> 100		
O=C(c1ccccc1O)N1CCOCC1 [Compound 67]		> 100		> 100		
Cc1ccc(O)c(C(=O)N2CCOCC2)c1 [Compound 68]		> 100	380	> 100		
Oc1ccc2ccccc2c1CN1CCOCC1 [Compound 69]		> 100		> 100		
COc1ccc(O)c(CN2CCN(C)CC2)c1 [Compound 73]		> 100		> 100		
CCN1CCN(Cc2cc(OC)ccc2O)CC1 [Compound 74]		> 100		> 100		
CN1CCN(Cc2c(O)ccc3ccccc23)CC1 [Compound 75]		> 100		> 100		
O=C1CCCN1Cc1cc(Cl)c2cccnc2c1O [Compound 76]	0.84	10.2 ± 0.25	10.2	12.2 ± 0.55	12	
CC1CCCCN1Cc1cc(Cl)c2cccnc2c1O (stereo not drawn) [Compound 77]	7.57	2.57 ± 0.1	2.57	0.34 ± 0.03	0.339	IC50 [1, 11]: 2.35 µM; IC50 [1, 12]: 2.34 µM; IC50 [2, 13]: 1.55 µM; SR (MES-SA_TQ / Dx5_TQ) (values in parentheses) [2, 14]: 1.51; SR_TQ [2, 5]: 1.51
CCOC(=O)C1CCCN(Cc2cc(Cl)c3cccnc3c2O)C1 (stereo not drawn) [Compound 78]		2.52 ± 0.22		0.43 ± 0.01		IC50 [1, 11]: 2.14 µM; IC50 [2, 13]: 1.18 µM; SR (MES-SA / MES-SA/Dx5) ([2]; fraction of IC50 in P-gp negative vs positive cells, absence of TQ): 5.91; SR (MES-SA_TQ / Dx5_TQ) (values in parentheses) [2, 14]: 1.81
Oc1c(CN2CCc3ccccc3C2)cc(Cl)c2cccnc12 [Compound 80]	7.21	1.96 ± 0.22	1.95	0.27 ± 0.06	0.263	IC50 [1, 11]: 1.81 µM; IC50 [1, 12]: 1.78 µM; IC50 [2, 13]: 1.05 µM; SR (MES-SA_TQ / Dx5_TQ) (values in parentheses) [2, 14]: 1.72; SR_TQ [2, 5]: 1.72
Oc1cc2c(cc1O)CN(Cc1ccc3cccnc3c1O)CC2 [Compound 82, 2-((8-Hydroxy-quinolin-7-yl)methyl)-1,2,3,4-tetrahydroisoquinoline-6,7-diol Hydrochloride]	0.95	3.42 ± 0.28	3.39	3.61 ± 0.51	3.55	
Oc1c(C(c2ccncc2)N2CCCC2)ccc2cccnc12 (stereo not drawn) [Compound 86]	1.64	5.99 ± 0.88	5.89	3.66 ± 0.45	3.63	
Oc1c(C(c2ccc(Cl)cc2)N2CCCC2)ccc2cccnc12 (stereo not drawn) [Compound 87]	3					pIC50 value MES-SA [1]: 4.71; IC50 [1, 3]: 19.7 ± 2.25 µM; pIC50 value MES-SA/Dx5 [2]: 5.18; IC50 [2, 4]: 6.58 ± 0.53 µM; SR_TQ [2, 5]: 1.35
Cc1ccc(C(c2cc(Cl)c3cccnc3c2O)N2CCCC2)cc1 (stereo not drawn) [Compound 91]	2.18	13.2 ± 3.09	12.9	6.06 ± 2.21	5.62	IC50 [1, 12]: 8.91 µM; IC50 ([2]; Homo sapiens, MES-SA/Dx5, read-out: pIC50 value MES-SA/Dx5 + TQ, MES-SA/Dx5 cells, with TQ (converted)): 2.34 µM; SR_TQ [2, 5]: 3.8
Oc1c(C(c2ccncc2)N2CCCCC2)ccc2cccnc12 (stereo not drawn) [Compound 93]	1.93					pIC50 value MES-SA [1]: 4.81; IC50 [1, 3]: 16.2 ± 4.33 µM; pIC50 value MES-SA/Dx5 [2]: 5.08; IC50 [2, 4]: 8.39 ± 1.09 µM; SR_TQ [2, 5]: 1.1
Oc1c(C(c2cccs2)N2CCCCC2)ccc2cccnc12 (stereo not drawn) [Compound 94]	0.76	8.88 ± 0.93	8.91	11.6 ± 0.94	11.5	
Oc1c(C(c2ccccc2Cl)N2CCCCC2)ccc2cccnc12 (stereo not drawn) [Compound 95]	1.85					pIC50 value MES-SA [1]: 4.77; IC50 [1, 3]: 17.5 ± 4.45 µM; pIC50 value MES-SA/Dx5 [2]: 5.04; IC50 [2, 4]: 9.45 ± 2.11 µM; SR_TQ [2, 5]: 2.75
